According to patent US20230322837A1, “PREPARATION METHOD FOR AND APPLICATION OF CLASS OF STELLATE BIFUNCTIONAL COMPOUNDS TARGETING SPIKE PROTEIN AGAINST RESPIRATORY TRACT INFECTION VIRUS AND SALT THEREOF” (priority 2020, published 2023):
Like-named read-outs stand apart in the source and are kept apart here.

Columns and labels:
[1] = test system: Lentivirus-NC virus infection of H1299 cells; details: different virus titers (MOI 5, 10, 20), FIGS. 7 and 9
Procedure: H1299 Human lung cancer cells, cultured with RPMI-1640 10% fetal bovine serum in an incubator with 5% CO2 and saturated humidity at 37° C. • RPMI-1640 + 10% Fetal Bovine Serum • PBS (Life Science Products&Services) • Trypsin-EDTA Solution (Gibco) • 24-well plate (Corning) • Lentivirus-NC virus solution (GenePharma, 1×10^9 TU/mL)
Principles and procedures for virus infection experiment • 1.

plasma coagulation [2] = details: in vitro, rabbit platelet poor plasma, x±s, n = 3
Procedure: (§1) Coagulation is a complex process involving a series of coagulation factors, which essentially include two pathways, “intrinsic coagulation pathway” and “extrinsic coagulation pathway”. Activated partial thromboplastin time (APTT), prothrombin time (PT), and thrombin time (TT) are adopted usually in the laboratory to evaluate the anticoagulant effect.
(§2) New Zealand rabbits were anaesthetized with chloral hydrate, heart puncture was conducted to collect blood into an anticoagulant tube containing ⅒ vol 3.8% sodium citrate, followed by centrifuging at 3000 rpm for 15 min, supernatant was collected to obtain platelet poor plasma which was stored in a refrigerator for later use.
(§3) The compounds were prepared with DMSO to obtain stock solutions with a concentration of 10 mM. Samples to be tested were diluted with normal saline during the test, with a final concentration of 50 µM, 12.5 µM, 3.13 µM, 0.78 µM, 0.20 µM, and 0.05 µM.
TT Assay: 100 µL of prepared plasma was mixed well with 50 µL of the sample mixture to be tested, and pre-heated at 37° C. for 2 min, followed by addition of 50 µL of TT reagent to the mixture and detection to record results of the instrument.
(§4) One-way analysis of variance (One-Way ANOVA) was performed for multi-group comparison; pairwise comparison for means among groups was performed, with Dunnett’s multiple comparisons test in case of homogeneity of variance, and Dunnett’s T3 multiple comparisons test in case of heterogeneity of variance. P <0.05 means statistical significance.

plasma coagulation [3] = details: in vitro, rabbit platelet poor plasma, x±s, n = 3; remark: listed apart in the source
Procedure: as §1, §2, §3
PT Assay: 50 µL of plasma was mixed well with 20 µL of samples to be tested respectively, the mixture was pre-heated at 37° C. for 2 min, followed by incubation at 37° C. for 3 min, and addition of 100 µL of PT reagent. The mixture was mixed well and tested to record the coagulation time.
as §4

plasma coagulation [4] = details: for APTT: in vitro, rabbit platelet poor plasma, x±s, n = 3
Procedure: as §1, §2, §3
APTT Assay: 100 µL of plasma was mixed well with 50 µL of samples to tested respectively, the mixture was pre-heated at 37° C. for 2 min, then 50 µL of APTT reagent was added, followed by incubation at 37° C. for 3 min, addition of 50 µL of 0.025 mol/L CaCl2, and detection on an automatic blood coagulation analyzer to record the coagulation time.
as §4

Q: For `O=C(Oc1ccc(-c2coc3c(OC(=O)c4cc(O)c(O)c(O)c4)cc(OC(=O)c4cc(O)c(O)c(O)c4)c(OC(=O)c4cc(O)c(O)c(O)c4)c3c2=O)cc1)c1cc(O)c(O)c(O)c1` [Compound 4], which “inhibition of virus infection in cells” value ([1]; 10 µM concentration) is on record?
A: significantly inhibited virus infection in cells

Q: And the “inhibition of virus infection in cells” value ([1]; 20 µM concentration)?
A: significantly inhibit virus infection in cells

Q: Which results are given for `O=C(O)CC1OC(O)C(OC(=O)c2cc(O)c(O)c(O)c2)C(OC(=O)c2cc(O)c(O)c(O)c2)C1OC(=O)c1cc(O)c(O)c(O)c1` (stereo not shown) [Compound 6]?
A: TT (plasma coagulation [2]; 0.05 µM): 23.35 ± 0.31 s; TT (plasma coagulation [2]; 0.20 µM): 22.90 ± 0.09 s; TT (plasma coagulation [2]; 0.78 µM): 23.95 ± 0.07 s; TT (plasma coagulation [2]; 3.13 µM): 25.25 ± 0.27 s; TT (plasma coagulation [2]; 12.50 µM): 28.89 ± 0.68 s; TT (plasma coagulation [2]; 50.00 µM): 38.87 ± 0.77 s; PT (plasma coagulation [3]; 0.05 µM): 9.76 ± 0.85 s; PT (plasma coagulation [3]; 0.20 µM): 10.11 ± 0.30 s; PT (plasma coagulation [3]; 0.78 µM): 10.54 ± 0.37 s; PT (plasma coagulation [3]; 3.13 µM): 12.83 ± 0.19 s; PT (plasma coagulation [3]; 12.50 µM): 13.73 ± 0.17 s; PT (plasma coagulation [3]; 50.00 µM): 16.66 ± 0.45 s; inhibition of virus infection in cells ([1]; 20 µM concentration): significantly inhibit virus infection in cells; inhibition of plasma coagulation (coagulation indexes APTT, PT, and TT) (plasma coagulation [4]; dose gradients 50.00, 12.50, 3.13, 0.78, 0.20, 0.05 (printed µL), covers APTT, PT and TT): dose-dependently inhibit plasma coagulation; APTT (plasma coagulation [4]; 0.05 µM): 20.12 ± 0.09 s; APTT (plasma coagulation [4]; 0.20 µM): 24.03 ± 1.05 s; APTT (plasma coagulation [4]; 0.78 µM): 26.84 ± 0.79 s; APTT (plasma coagulation [4]; 3.13 µM): 37.72 ± 1.83 s; APTT (plasma coagulation [4]; 12.50 µM): 75.11 ± 2.58 s; APTT (plasma coagulation [4]; 50.00 µM): 106.51 ± 0.94 s
